# Measured values: patent publication US10022357B2, “Amyloid precursor protein MRNA blockers for treating Down syndrome and Alzheimer's disease” (THE GENERAL HOSPITAL CORPORATION, priority 2013, dated 2018)
# “Also recorded” adds a separate entry of the source. Read-outs that look alike come from different tables or passages of the source.
# Tests used:
# APP 5′UTR = assay type: cell-based, human
# Experimental: The LDDN library had already yielded small molecules that inhibit mesangial cell proliferation, following three-dimensional pharmacophore modeling and screening. A second Molecular Libraries Screening Centers Network HTS was conducted at the Columbia University Genome Center to generate hits as listed on PUBCHEM (AID: 1285), from which the dose-response assays identified 50 lead APP 5′UTR-directed luciferase reporter inhibitors. […] These were directly measured and found not to inhibit luciferase enzyme activity. […] These thirteen leads were tricyclic aromatic compounds that included two major classes of hits: compounds with a benzimidazole backbone, i.e. APP blockers 2, −7, and −9 (JTR-009) and compounds with a benzothiazole backbone, i.e. APP blockers −8 and −13. The compounds with a benzothiazole backbone were also identified to be similar to PFTα, another benzothiazole, and P53 inhibitor, by showing protection against oxidative injuries in synaptosomes from wild-type mice and preserving presynaptic terminals in cultured hippocampal neurons exposed to etoposide).
# APP 5′UTR-Luciferase inhibitor compounds obtained from the preliminary HTS of pIRES-APP-5′UTR transfectants were picked, and the dose-response assays were conducted at 0.1, 1.0, and 5.0 μM (based on the exact molecular weights of the compounds). […] Each hit was added in 5 wells, and this was repeated twice on 2 different days. There was a positive control and negative control column of cells as previously described.
# To identify APP 5′UTR-specific translation blockers from LDDN Harvard (see ref [21]) and from the Columbia University Genome center, the inventors then counter-screened against the PrP 5′UTR and shortlisted thirteen potent inhibitors to be further characterized. In FIG. 1D, the listed constructs were employed to conduct these transfection based assays to ensure that the 13 APP specific leads were not also PrP inhibitors. Table 1 lists the IC50 of each of these inhibitors with respect to their dose-responsive capacity to reduce APP 5′UTR-driven luciferase expression relative to their IC50 values against PrP 5′UTR expression.
# APP and amyloid-beta [1] = assay type: cell-based; conditions: Table 2; printed in brackets as max; read-out: APP and amyloid-beta Inhibition (IC50), max
# APP mRNA = assay type: cell-based, human
# Experimental: (§1) qRT-PCR was conducted to measure the capacity of JTR-009 to change steady state levels of […] levels, as was previously described (see Ref [6]). Desferrioxamine treatment was used for a positive control to assess changes to the steady state levels of both APP mRNA and transferrin receptor mRNAs. Primers for β-actin were employed as a control for an mRNA previously shown to be unchanged by desferrioxamine and other inducers. Experiments were carried out on the ABI Prism 7000 sequence detection system (Applied Biosystems). […] The primers to β-actin, TfR1 were designed and ordered from Invitrogen. The APP primer set was purchased from Qiagen and has been benchmarked on several reports for accurate measurement of APP mRNA levels.
# [2] = test system: IRP1 and IRP2 binding to H-ferritin IRE; assay: Biotinylated RNA pulldown assay, IRP1/IRP2 binding to H-ferritin IRE probe; design: species or system human; conditions: same conditions as APP IRE pulldown
# Experimental: (§2) Biotinylated RNA oligonucleotides: […] Paramagnetic streptavidin-conjugated Dynabeads (Invitrogen) were washed with ribonucleoprotein immunoprecipitation buffer, added into lysates to bind IRP(1/2)-biotinylated-RNA complexes, and incubated for 1 hour at room temperature. After five washes, the proteins that bound to the beads were analyzed by Western blotting for IRP1, IRP2, and biotin. […] The IREs-bound IRPs were quantified by Quantity One® software (Bio-Rad).
# PrP 5′UTR = assay: cells; conditions: Homo sapiens, SH-SY5Y, read-out: IC50 to reduce 5′UTR driven luciferase expression in pIRES-PrP-5′UTR transfectants
# APP [3] = assay: Western blot of APP levels in primary mouse cortical neurons
# Experimental: Primary cortical neurons from wild type mice and from the PAC-Tg(SNCA(wt) human SNCA genomic mice [22] were cultured as outlined by the method of Ray et al., 2009 [23]. The embryonic (E15-18) pups were recovered after sacrificing pregnant females, separated out the brain, and removed the meninges and blood vessels. The cortices were then dissected out and placed them in separate Eppendorf tubes containing 500 uL of HBSS without Ca+^2/Mg^+2 salts supplemented with 1 mM sodium pyruvate and 10 mM HEPES, pH 7.4. On ice, individual cells were isolated by titrating 10 times using a glass pasture pipette with the tip barely fire polished. […]
# (§3) After cells were exposed to increasing concentrations of the compounds as outlined in each figure legend, cytoplasmic protein lysates were prepared by homogenizing the cells in midRIPA buffer (25 mM Tris pH 7.4, 1% NP40, 0.5% sodium deoxycholate, 15 mM NaCl, protease inhibitors, RNase inhibitor and 10 μM DTT). Western blotting for APP was performed using the N-terminal 22C11 antibody (Millipore, Inc) and the A8717 C-terminal specific APP antibody (Sigma, inc), while αsyn was detected using mouse monoclonal anti-αsyn (BD Transduction Laboratories) and anti-β-actin (Chemicon). […] The bands were quantified using QuantityOne® software (BioRad).
# IRP1 binding to APP IRE = assay: Biotinylated RNA pulldown assay, IRP1 binding to APP IRE probe; design: species or system human
# Experimental: as §2
# APP [4] = test system: APP
# Experimental: After cells were exposed to increasing concentrations of the compounds as outlined in each figure legend, cytoplasmic protein lysates were prepared by homogenizing the cells in midRIPA buffer (25 mM Tris pH 7.4, 1% NP40, 0.5% sodium deoxycholate, 15 mM NaCl, protease inhibitors, RNase inhibitor and 10 μM DTT). Western blotting for APP was performed using the N-terminal 22C11 antibody (Millipore, Inc) and the A8717 C-terminal specific APP antibody (Sigma, inc), while αsyn was detected using mouse monoclonal anti-αsyn (BD Transduction Laboratories) and anti-β-actin (Chemicon). The blots were developed using chemiluminescence (PIERCE, Rockford, Ill.) and visualized with a Phosphoimager (BioRad, Hercules, Calif.). The bands were quantified using QuantityOne® software (BioRad).
# α-synuclein (SNCA) = assay: Western blot of α-synuclein levels in primary mouse neurons
# Experimental: Primary cortical neurons from wild type mice and from the PAC-Tg(SNCA(wt) human SNCA genomic mice [22] were cultured as outlined by the method of Ray et al., 2009 [23]. The embryonic (E15-18) pups were recovered after sacrificing pregnant females, separated out the brain, and removed the meninges and blood vessels. The cortices were then dissected out and placed them in separate Eppendorf tubes containing 500 uL of HBSS without Ca+^2/Mg^+2 salts supplemented with 1 mM sodium pyruvate and 10 mM HEPES, pH 7.4. On ice, individual cells were isolated by titrating 10 times using a glass pasture pipette with the tip barely fire polished. The volume was adjusted to 1.5 mL, by adding 1 mL of HBSS with Ca^+2/Mg^+2 salts+Na. pyruvate+HEPES, restoring the divalent cations by adding HBSS so that the non-dispersed tissue could settle for 5 min, on ice. In the tissue culture laminar hood, the supernatant was transferred into a new 15 mL tube and centrifuged for 1 minute at 900 rpm, 4° C. The pellet was gently re-suspended in 2 mL of HBSS with Ca^+2/Mg^+2 salts+Na pyruvate+HEPES and took an aliquot for counting (2 mL for approx 5 embryos). The cells were then plated at ˜1×10^5 cells/well of a 24 well or 2×10^5/in 12 well plates. Each set of plates was coated with poly D-lysine containing poly L-lysine coverslips for micro immuncytochemical confirmation of neuronal integrity.
# as §3
# TfR mRNA = assay type: cell-based, human; conditions: iron chelation, 25 μM, positive control
# Experimental: as §1
# APP and amyloid-beta [5] = conditions: Table 2; Refs 27, 33; read-out: APP and amyloid-beta Inhibition (IC50); cited from earlier work
smiles,measurement,setting,value
COc1cc(SC)ccc1C(=O)Nc1nc2ccccc2[nH]1 [BL-1],"concentration to inhibit APP 5′UTR conferred translation, times less than strophanthidin","APP 5′UTR; FIG. 8, relative to strophanthidin",500 times
"Cc1ccc2[nH]c(-c3ccc(N)cc3)nc2c1 [JTR-009, 4-(5-methyl-1H-benzimidazol-2yl) aniline]",IC50,APP and amyloid-beta [1],10 nM
same,APP mRNA levels,"APP mRNA; 0.1 nM to 10 μM drug, N=4",unchanged
same,increase of APP mRNA levels,APP mRNA; 100 μM,~10%
same,IRP1/IRP2 binding to H-ferritin IRE probes,[2],always maintained; also recorded: no inhibitory change
same,IC50,PrP 5′UTR,4000 nM
same,reduction of APP levels,"APP [3]; concentrations as low as 10 nM, primary mouse cortical neurons",60%
same,lowest dose that inhibited APP levels,APP [3]; primary mouse E-18 neurons,1 nM
same,reduction of IRP1 binding to biotinylated APP IRE RNA probes,"IRP1 binding to APP IRE; 0.3 μM, N=7",20%
same,fold reduction of IRP1 binding to the APP IRE,"IRP1 binding to APP IRE; 3 μM, 48 hour exposure",2 fold
same,reduction of IRP1 binding to biotinylated APP IRE RNA probes,"IRP1 binding to APP IRE; 3 μM, N=7",50%
same,IRP1 binding to biotinylated APP IRE RNA probes,"IRP1 binding to APP IRE; 30 μM, N=7",completely inhibited
same,reduction of APP 5′UTR activity,"APP 5′UTR; 0.1 μM drug, N=4",two-fold
same,IC50,"APP 5′UTR; Homo sapiens, SH-SY5Y, 384-plate assays, inhibition curves, first IC50 line of Table 1, read-out: IC50 to reduce 5′UTR driven luciferase expression in pIRES-APP-5′UTR transfectants",400 nM
same,IC50,"APP 5′UTR; Homo sapiens, SH-SY5Y, FIG. 4A, dose response, N=4, read-out: IC50 to limit APP 5′UTR-luciferase expression",100 nM
same,IC50,"APP 5′UTR; Homo sapiens, SH-SY5Y, Table 2, read-out: APP 5′UTR Inhibition (IC50)",100 nM
same,IC50,"APP 5′UTR; Homo sapiens, SH-SY5Y, dose-responsive measurements, range, read-out: IC50 against the APP 5′UTR",1 to 100 nM
same,fold more potent/effective than posiphen to limit APP 5′UTR driven translation,"APP 5′UTR; relative to posiphen, listed as Formula I",about 10 fold
same,concentration that limits APP translation,APP [4],less than one
same,reduction of APP in lysate supernatants of RNA pulldown,APP [4]; 3 μM,35%
same,"reduction of APP (densitometry, β-actin standardized)","APP [4]; 20 μM, 48 hour treatment",50%
same,reduction of APP in lysate supernatants of RNA pulldown,APP [4]; 30 μM,70%
same,"APP levels, percent of control levels","APP [4]; 30 μM, 48 hours, N=5",30%
same,IC50,"APP [4]; read-out: IC50 for translational inhibition of APP, dose-responsive assays",< 1000 nM
same,average pair-wise reduction of SNCA levels (threshold),"α-synuclein (SNCA); 0.001 μM, 48 hours",50%
same,α-synuclein (SNCA) levels,"α-synuclein (SNCA); primary mouse neurons, same treatment as APP reduction",unchanged; also recorded: no significant changes
"CC(=O)N(O)CCCCCNC(=O)CCC(=O)N(O)CCCCCNC(=O)CCC(=O)N(O)CCCCCN [desferrioxamine, reference compound]",increase of transferrin receptor mRNA levels,TfR mRNA,2 fold
same,APP mRNA levels,APP mRNA; iron chelation with desferrioxamine,unchanged
"CN1CC[C@]2(C)c3cc(OC(=O)Nc4ccccc4)ccc3N(C)[C@H]12 [posiphen, reference compound]",IC50,APP and amyloid-beta [5],1000 nM
same,increase of APP 5′UTR activity,"APP 5′UTR; 0.1 μM drug, matched conditions",15%
same,IC50,"APP 5′UTR; FIG. 4A, dose response, N=4, read-out: IC50 to limit APP 5′UTR-luciferase expression",5000 nM
